According to patent publication US20260159520A1, “HETEROBIFUNCTIONAL COMPOUNDS AND METHODS OF TREATING DISEASE” (Halda Therapeutics OpCo, Inc., priority 2022, published 2026):

Assays:
[1] = tested on: T-Rex 293 cell line SC cells lacking increased expression of progesterone receptor isoform B protein; experiment: Cellular growth inhibition, T-Rex 293 SC cells without doxycycline; format: cell-based; settings: not exposed to doxycycline, 72 hours, CellTiter-Glo 2.0
[2] = tested on: T-Rex 293 cell line SC cells having increased expression of progesterone receptor isoform B protein; experiment: Cellular growth inhibition, T-Rex 293 SC cells with doxycycline (increased progesterone receptor isoform B expression); format: cell-based; settings: with 10 ng/mL doxycycline (increased progesterone receptor isoform B), 72 hours, CellTiter-Glo 2.0
androgen receptor = target: T1, androgen receptor (Homo sapiens, UniProt P10275); experiment: Binding affinity to androgen receptor ([3H]methyltrienolone radioligand, cell cytosol); settings: Table 6
T1 construct: endogenous in cells; host or cells: unnamed cells (cytosol fraction)
T1 sequence (P10275 1-920): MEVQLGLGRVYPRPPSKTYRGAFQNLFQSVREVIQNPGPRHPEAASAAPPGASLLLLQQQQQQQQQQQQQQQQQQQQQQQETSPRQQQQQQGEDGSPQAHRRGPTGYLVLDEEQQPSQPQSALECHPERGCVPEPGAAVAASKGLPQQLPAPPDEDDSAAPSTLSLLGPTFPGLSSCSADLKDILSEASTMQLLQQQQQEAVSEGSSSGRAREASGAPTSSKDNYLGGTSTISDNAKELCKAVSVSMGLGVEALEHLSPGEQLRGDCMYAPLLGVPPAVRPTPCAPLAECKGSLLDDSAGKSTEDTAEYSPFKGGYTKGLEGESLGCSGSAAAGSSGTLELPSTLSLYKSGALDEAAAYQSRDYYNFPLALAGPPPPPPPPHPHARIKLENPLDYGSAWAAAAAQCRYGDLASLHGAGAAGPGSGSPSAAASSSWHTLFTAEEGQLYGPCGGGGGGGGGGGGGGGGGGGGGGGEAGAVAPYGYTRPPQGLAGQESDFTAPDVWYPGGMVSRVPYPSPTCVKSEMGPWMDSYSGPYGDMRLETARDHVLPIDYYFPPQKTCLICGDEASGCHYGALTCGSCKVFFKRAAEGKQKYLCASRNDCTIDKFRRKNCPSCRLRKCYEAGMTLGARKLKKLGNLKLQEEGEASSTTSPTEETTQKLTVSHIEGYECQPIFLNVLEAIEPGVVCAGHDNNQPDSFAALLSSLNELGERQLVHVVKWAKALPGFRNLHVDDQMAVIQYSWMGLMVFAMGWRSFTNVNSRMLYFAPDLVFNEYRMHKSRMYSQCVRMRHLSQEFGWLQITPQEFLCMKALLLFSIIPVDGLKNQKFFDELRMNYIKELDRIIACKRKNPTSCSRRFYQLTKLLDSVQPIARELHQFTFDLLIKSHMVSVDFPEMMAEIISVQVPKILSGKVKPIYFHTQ
Method: Fractions of cell cytosol ([…]) were incubated for 24 hr at 4° C. with 1 nM [^3H]methyltrienolone in the absence or presence of the test compound in a buffer containing 25 mM Hepes-Tris (pH 7.4), 1 mM EDTA, 10 mM Na2MoO4, 2 mM DTT, 5 μM triamcinolone acetonide, and 10% glycerol. Nonspecific binding was determined in the presence of 1 μM testosterone. Following incubation, the samples were filtered rapidly under vacuum through glass fiber filters (GF/B, Packard) presoaked with 0.3% PEI and rinsed several times with ice-cold 50 mM Tris-HCl using a 96-sample cell harvester (Unifilter, Packard). The filters were dried then counted for radioactivity in a scintillation counter (Topcount, Packard) using a scintillation cocktail (Microscint 0, Packard). The results are expressed as a percent inhibition of the control radioligand specific binding. The standard reference compound is testosterone, which is tested in each experiment at several concentrations to obtain a competition curve from which its IC50 is calculated.

| SMILES | GI50 [1] [nM] | GI50 [2] [nM] | Kd (androgen receptor) [nM] |
| --- | --- | --- | --- |
| CCc1cnn2c(NCc3ccc(=O)n(CCOCCOCCOCCOCCOCCOCCN(C)c4ncc(C(=O)N[C@H]5C(C)(C)[C@H](Oc6ccc(C#N)c(Cl)c6)C5(C)C)cn4)c3)cc(N3CCCC[C@H]3CCO)nc12 [Compound I-4, N-((1r,3r)-3-(3-chloro-4-cyanophenoxy)-2,2,4,4-tetramethylcyclobutyl)-2-((20-(5-(((3-ethyl-5-((S)-2-(2-hydroxyethyl)piperidin-1-yl)pyrazolo[1,5-a]pyrimidin-7-yl)amino)methyl)-2-oxopyridin-1(2H)-yl)-3,6,9,12,15,18-hexaoxaicosyl)(methyl)amino)pyrimidine-5-carboxamide] | < 500 | < 500 | < 50 |
| CCc1cnn2c(NCc3ccc(OCCOCCOCCOCCOCCOCCOCCN(C)c4ncc(C(=O)N[C@H]5C(C)(C)[C@H](Oc6ccc(C#N)c(Cl)c6)C5(C)C)cn4)nc3)cc(N3CCCC[C@H]3CCO)nc12 [Compound I-5] | 500 to 1500 | < 500 | < 50 |
| CCc1cnn2c(NCc3ccc(OCCOC4CCN(c5ncc(C(=O)N[C@H]6C(C)(C)[C@H](Oc7ccc(C#N)c(Cl)c7)C6(C)C)cn5)CC4)nc3)cc(N3CCCC[C@H]3CCO)nc12 [Compound I-7, N-((1r,3r)-3-(3-chloro-4-cyanophenoxy)-2,2,4,4-tetramethylcyclobutyl)-2-(4-(2-((5-(((3-ethyl-5-((S)-2-(2-hydroxyethyl)piperidin-1-yl)pyrazolo[1,5-a]pyrimidin-7-yl)amino)methyl)pyridin-2-yl)oxy)ethoxy)piperidin-1-yl)pyrimidine-5-carboxamide] | < 500 | < 500 | < 50 |
| CCc1cnn2c(NCc3ccc(OCCOCCOCCOC4CCN(c5ncc(C(=O)N[C@H]6C(C)(C)[C@H](Oc7ccc(C#N)c(Cl)c7)C6(C)C)cn5)CC4)nc3)cc(N3CCCC[C@H]3CCO)nc12 [Compound I-8] | < 500 | < 500 | < 50 |
| CC1(C)[C@H](NC(=O)c2cnc(N3CCC(OCCNS(=O)(=O)c4ccc(Nc5ncc(Br)c(Nc6cccc(F)c6C(N)=O)n5)cc4)CC3)nc2)C(C)(C)[C@H]1Oc1ccc(C#N)c(Cl)c1 [Compound I-13, 2-(4-(2-((4-((5-bromo-4-((2-carbamoyl-3-fluorophenyl)amino)pyrimidin-2-yl)amino)phenyl)sulfonamido)ethoxy)piperidin-1-yl)-N-((1 r,3r)-3-(3-chloro-4-cyanophenoxy)-2,2,4,4-tetramethylcyclobutyl)pyrimidine-5-carboxamide] | > 3000 | > 3000 | < 50 |
| CCc1cnn2c(NCc3ccc(COCCN4CCN(CC5CCN(c6ncc(C(=O)N[C@H]7C(C)(C)[C@H](Oc8ccc(C#N)c(Cl)c8)C7(C)C)cn6)CC5)CC4)nc3)cc(N3CCCC[C@H]3CCO)nc12 [Compound I-42] | < 500 | < 500 | < 50 |
| CCc1cnn2c(NCc3ccc(OCCOCCOCCOC4CCN(c5ccc(C(=O)N[C@H]6C(C)(C)[C@H](Oc7ccc(C#N)c(Cl)c7)C6(C)C)nn5)CC4)nc3)cc(N3CCCC[C@H]3CCO)nc12 [Compound I-44, N-((1r,3r)-3-(3-chloro-4-cyanophenoxy)-2,2,4,4-tetramethylcyclobutyl)-6-(4-(2-(2-(2-((5-(((3-ethyl-5-((S)-2-(2-hydroxyethyl)piperidin-1-yl)pyrazolo[1,5-a]pyrimidin-7-yl)amino)methyl)pyridin-2-yl)oxy)ethoxy)ethoxy)ethoxy)piperidin-1-yl)pyridazine-3-carboxamide] | < 500 | < 500 | 50 to 500 |
| CCc1cnn2c(NCc3ccc(OCCCN4CCN(CC5CCN(c6ccc(C(=O)N[C@H]7C(C)(C)[C@H](Oc8ccc(C#N)c(Cl)c8)C7(C)C)cn6)CC5)CC4)nc3)cc(N3CCCC[C@@H]3CCO)nc12 [Compound I-55, N-((1r,3r)-3-(3-chloro-4-cyanophenoxy)-2,2,4,4-tetramethylcyclobutyl)-6-(4-((4-(3-((5-(((3-ethyl-5-((R)-2-(2-hydroxyethyl)piperidin-1-yl)pyrazolo[1,5-a]pyrimidin-7-yl)amino)methyl)pyridin-2-yl)oxy)propyl)piperazin-1-yl)methyl)piperidin-1-yl)nicotinamide] | < 500 | < 500 | < 50 |
| Cc1ncc(-c2nc(Nc3ccc(C(=O)N4CC[C@H](N(C)CCOCCOCCOC5CCN(c6ncc(C(=O)N[C@H]7C(C)(C)[C@H](Oc8ccc(C#N)c(Cl)c8)C7(C)C)cn6)CC5)C4)cc3)ncc2F)n1C(C)C [Compound I-96] | 1500 to 3000 | 1500 to 3000 | – |
| Cc1ncc(-c2nc(Nc3ccc(C(=O)N4CC[C@H](N(C)CCOCCOCCOCCOCCOC5CCN(c6ncc(C(=O)N[C@H]7C(C)(C)[C@H](Oc8ccc(C#N)c(Cl)c8)C7(C)C)cn6)CC5)C4)cc3)ncc2F)n1C(C)C [Compound I-97] | 1500 to 3000 | 500 to 1500 | – |
| CCc1cnn2c(NCc3ccc(OCCCN4CCN(CC5CCN(c6ccc(C(=O)N[C@H]7C(C)(C)[C@H](Oc8ccc(C#N)c(Cl)c8)C7(C)C)cc6)CC5)CC4)nc3)cc(N3CCCC[C@@H]3CCO)nc12 [II-1, N-((1r,3r)-3-(3-chloro-4-cyanophenoxy)-2,2,4,4-tetramethylcyclobutyl)-4-(4-((4-(3-((5-(((3-ethyl-5-((R)-2-(2-hydroxyethyl)piperidin-1-yl)pyrazolo[1,5-a]pyrimidin-7-yl)amino)methyl)pyridin-2-yl)oxy)propyl)piperazin-1-yl)methyl)piperidin-1-yl)benzamide] | < 500 | < 500 | < 50 |
